Experimental data taken from publication PMC13205134, “Design, synthesis, and biological properties exhibited by 1,2,3-triazole based Grp94-selective inhibitors” (European journal of medicinal chemistry, 2025).

How the values were obtained:
[1] = system: Grp94; experiment: Competitive binding fluorescence polarization (FP) assay, Grp94; conditions: selectivity over Hsp90α; n.s. = non-selective
Procedure: The Fluorescence Polarization Assay (FP) was performed in 96-well flat-bottom plates (Santa Cruz Biotechnology) with a final volume of 100 μL per well. […] Each well contained 10 nM of Hsp90α or Grp94 (Enzo Biochem Inc.) and 6 nM of FITC-GDA (fluorescent tracer, stock in DMSO). Compounds were tested in triplicate at final concentrations of 100 μM, 10 μM, 1 μM, 0.1 μM and 0.01 μM with each final concentration containing 1 % DMSO. Each plate included control wells containing: (i) buffer only (background polarization), (ii) protein plus tracer (maximum polarization control), and (iii) tracer only (minimum polarization control). Plates were incubated on a rocker at 4 °C for 24 h.

[2] = target: Hsp90α (Homo sapiens, UniProt P07900); experiment: Competitive binding fluorescence polarization (FP) assay, Hsp90α; conditions: FITC-GDA tracer, mean of triplicates ± SD, read-out: Apparent Kd Hsp90α
Procedure: The Fluorescence Polarization Assay (FP) was performed in 96-well flat-bottom plates (Santa Cruz Biotechnology) with a final volume of 100 μL per well. The assay buffer consisted of 20 mM HEPES, 50 mM KCl, 10.5 mM MgCl2, 20 mM Na2MoO4, 0.01 % NP-40 detergent (NP-40), and pH 7.3 with fresh 2 mM dithiothreitol (DTT) and 0.1 mg/mL bovine γ-globulin (BGG). Each well contained 10 nM of Hsp90α or Grp94 (Enzo Biochem Inc.) and 6 nM of FITC-GDA (fluorescent tracer, stock in DMSO). Compounds were tested in triplicate at final concentrations of 100 μM, 10 μM, 1 μM, 0.1 μM and 0.01 μM with each final concentration containing 1 % DMSO. Each plate included control wells containing: (i) buffer only (background polarization), (ii) protein plus tracer (maximum polarization control), and (iii) tracer only (minimum polarization control). Plates were incubated on a rocker at 4 °C for 24 h. Fluorescence polarization (mP units) was measured at 37 °C using excitation and emission wavelengths of 485 and 528 nm, respectively. Apparent Kd values were determined via calculations from the polarization data obtained at which the tracer was displaced by 50 % by the compounds of interest.
[I50] = concentration of free inhibitor at 50% inhibition, [L50] = concentration of free fluorescence labeled ligand molecule at 50% inhibition, [P0] = concentration of free protein at 0% inhibition, K = dissociation constant of the protein−ligand complex.^4

Q: `COC(=O)c1c(O)cc(O)c(Cl)c1CCn1nncc1Cc1ccccc1CCC(F)(F)F` [Compound 50, methyl 3-chloro-4,6-dihydroxy-2-(2-(5-(2-(3,3,3-trifluoropropyl)benzyl)-1H-1,2,3-triazol-1-yl)ethyl)benzoate] was tested. Which “Fold selective for Grp94” value [1] did it give?
A: Its value is 70 fold.

Q: What about the Kd [2] of the same molecule?
A: The Kd was 4.32 ± 0.39 µM.

Q: What does the source list for `COC(=O)c1c(O)cc(O)c(Cl)c1CCn1nncc1Cc1ccc(Br)cc1` [Compound 33, methyl 2-(2-(5-(4-bromobenzyl)-1H-1,2,3-triazol-1-yl)ethyl)-3-chloro-4,6-dihydroxybenzoate]?
A: Fold selective for Grp94 [1]: 5 fold; Kd [2]: 3.38 ± 0.33 µM

Q: Which results are given for `COC(=O)c1c(O)cc(O)c(Cl)c1CCc1cnnn1Cc1ccccc1` [Compound 10, methyl 2-(2-(1-benzyl-1H-1,2,3-triazol-5-yl)ethyl)-3-chloro-4,6-dihydroxybenzoate]?
A: Fold selective for Grp94 [1]: n.s.; Kd [2]: 0.62 ± 0.04 µM

Q: With `COC(=O)c1c(O)cc(O)c(Cl)c1CCn1nncc1Cc1ccccc1SC(C)C` [Compound 45, methyl 3-chloro-4,6-dihydroxy-2-(2-(5-(2-(isopropylthio)benzyl)-1H-1,2,3-triazol-1-yl)ethyl)benzoate] as the molecule, how does the “Fold selective for Grp94” value [1] read?
A: Its value is 5 fold.

Q: What about the Kd [2] of the same molecule?
A: The Kd was 2.06 ± 0.87 µM.

Q: For `CCOc1cc(Cl)ccc1Cc1cnnn1CCc1c(Cl)c(O)cc(O)c1C(=O)OC` [Compound 41, methyl 3-chloro-2-(2-(5-(4-chloro-2-ethoxybenzyl)-1H-1,2,3-triazol-1-yl)ethyl)-4,6-dihydroxybenzoate], which “Fold selective for Grp94” value [1] is on record?
A: The value was 12 fold.

Q: What about the Kd [2] of the same molecule?
A: Its Kd is 8.9 ± 0.21 µM.

Q: `COC(=O)c1c(O)cc(O)c(Cl)c1CCn1nncc1Cc1cccc(Cl)c1` [Compound 38, methyl 3-chloro-2-(2-(5-(3-chlorobenzyl)-1H-1,2,3-triazol-1-yl)ethyl)-4,6-dihydroxybenzoate] was tested. Which “Fold selective for Grp94” value [1] did it give?
A: Its value is 3 fold.

Q: And the Kd [2]?
A: The Kd was 6.33 ± 1.33 µM.

Q: Which “Fold selective for Grp94” value [1] does the source give for `COC(=O)c1c(O)cc(O)c(Cl)c1CCn1nncc1Cc1ccccc1` [Compound 14, methyl 2-(2-(5-benzyl-1H-1,2,3-triazol-1-yl)ethyl)-3-chloro-4,6-dihydroxybenzoate] here?
A: Its value is 8 fold.

Q: And the Kd [2]?
A: Its Kd is 5.24 ± 0.24 µM.

Q: Which “Fold selective for Grp94” value [1] does the source give for `COC(=O)c1c(O)cc(O)c(Cl)c1CCn1nnnc1Cc1ccccc1` [Compound 20, methyl 2-(2-(5-benzyl-1H-tetrazol-1-yl)ethyl)-3-chloro-4,6-dihydroxybenzoate] here?
A: The value was 3 fold.

Q: What about the Kd [2] of the same molecule?
A: The Kd was 1.63 ± 0.88 µM.

Q: `CCSc1ccccc1Cc1cnnn1CCc1c(Cl)c(O)cc(O)c1C(=O)OC` [Compound 43, methyl 3-chloro-2-(2-(5-(2-(ethylthio)benzyl)-1H-1,2,3-triazol-1-yl)ethyl)-4,6-dihydroxybenzoate] was tested. Which “Fold selective for Grp94” value [1] did it give?
A: The value was 43 fold.

Q: What about the Kd [2] of the same molecule?
A: Its Kd is 8.53 ± 1.05 µM.

Q: For `COC(=O)c1c(O)cc(O)c(Cl)c1CCn1cc(Cc2ccccc2)nn1` [Compound 16, methyl 2-(2-(4-benzyl-1H-1,2,3-triazol-1-yl)ethyl)-3-chloro-4,6-dihydroxybenzoate], which “Fold selective for Grp94” value [1] is on record?
A: Its value is “n.s”.

Q: What about the Kd [2] of the same molecule?
A: The Kd was 6.79 ± 0.1 µM.

Q: Which results are given for `COC(=O)c1c(O)cc(O)c(Cl)c1CCn1nncc1Cc1ccc(C)cc1` [Compound 34, methyl 3-chloro-4,6-dihydroxy-2-(2-(5-(4-methylbenzyl)-1H-1,2,3-triazol-1-yl)ethyl)benzoate]?
A: Fold selective for Grp94 [1]: 9 fold; Kd [2]: 6.03 ± 0.37 µM

Q: How did the “Fold selective for Grp94” value [1] turn out when `CCc1ccccc1Cc1cnnn1CCc1c(Cl)c(O)cc(O)c1C(=O)OC` [Compound 46, methyl 3-chloro-2-(2-(5-(2-ethylbenzyl)-1H-1,2,3-triazol-1-yl)ethyl)-4,6-dihydroxybenzoate] was run?
A: The value was 12 fold.

Q: And the Kd [2]?
A: The Kd was 9.22 ± 0.48 µM.

Q: With `COC(=O)c1c(O)cc(O)c(Cl)c1CCn1nncc1Cc1ccc(F)cc1` [Compound 31, methyl 3-chloro-2-(2-(5-(4-fluorobenzyl)-1H-1,2,3-triazol-1-yl)ethyl)-4,6-dihydroxybenzoate] as the molecule, how does the “Fold selective for Grp94” value [1] read?
A: Its value is 2 fold.

Q: What about the Kd [2] of the same molecule?
A: The Kd was 4.72 ± 0.44 µM.

Q: How did the “Fold selective for Grp94” value [1] turn out when `CCCOc1ccccc1Cc1cnnn1CCc1c(Cl)c(O)cc(O)c1C(=O)OC` [Compound 42, methyl 3-chloro-4,6-dihydroxy-2-(2-(5-(2-propoxybenzyl)-1H-1,2,3-triazol-1-yl)ethyl)benzoate] was run?
A: Its value is 30 fold.

Q: What about the Kd [2] of the same molecule?
A: The Kd was 2.58 ± 0.36 µM.

Q: What does the source list for `COC(=O)c1c(O)cc(O)c(Cl)c1CCn1nncc1Cc1ccc(Cl)c(Cl)c1` [Compound 37, methyl 3-chloro-2-(2-(5-(3,4-dichlorobenzyl)-1H-1,2,3-triazol-1-yl)ethyl)-4,6-dihydroxybenzoate]?
A: Fold selective for Grp94 [1]: 5 fold; Kd [2]: 6.42 ± 0.45 µM

Q: What does the source list for `CCCSc1ccccc1Cc1cnnn1CCc1c(Cl)c(O)cc(O)c1C(=O)OC` [Compound 44, methyl 3-chloro-4,6-dihydroxy-2-(2-(5-(2-(propylthio)benzyl)-1H-1,2,3-triazol-1-yl)ethyl)benzoate]?
A: Fold selective for Grp94 [1]: 78 fold; Kd [2]: 4.39 ± 0.17 µM

Q: What does the source list for `COC(=O)c1c(O)cc(O)c(Cl)c1CCn1nncc1Cc1ccccc1Cl` [Compound 39, methyl 3-chloro-2-(2-(5-(2-chlorobenzyl)-1H-1,2,3-triazol-1-yl)ethyl)-4,6-dihydroxybenzoate]?
A: Fold selective for Grp94 [1]: 2 fold; Kd [2]: 8.32 ± 2.55 µM

Q: What does the source list for `COC(=O)c1c(O)cc(O)c(Cl)c1CCn1nncc1Cc1ccccc1CC(C)C` [Compound 49, methyl 3-chloro-4,6-dihydroxy-2-(2-(5-(2-isobutylbenzyl)-1H-1,2,3-triazol-1-yl)ethyl)benzoate]?
A: Fold selective for Grp94 [1]: 6 fold; Kd [2]: 0.92 ± 0.05 µM

Q: How did the “Fold selective for Grp94” value [1] turn out when `CCc1ccc(Cc2cnnn2CCc2c(Cl)c(O)cc(O)c2C(=O)OC)cc1` [Compound 35, methyl 3-chloro-2-(2-(5-(4-ethylbenzyl)-1H-1,2,3-triazol-1-yl)ethyl)-4,6-dihydroxybenzoate] was run?
A: Its value is “n.s”.

Q: And the Kd [2]?
A: Its Kd is 0.81 ± 0.06 µM.

Q: How did the “Fold selective for Grp94” value [1] turn out when `CCOc1ccccc1Cc1cnnn1CCc1c(Cl)c(O)cc(O)c1C(=O)OC` [Compound 40, methyl 3-chloro-2-(2-(5-(2-ethoxybenzyl)-1H-1,2,3-triazol-1-yl)ethyl)-4,6-dihydroxybenzoate] was run?
A: The value was 30 fold.

Q: And the Kd [2]?
A: The Kd was 8.92 ± 0.16 µM.

Q: For `COC(=O)c1c(O)cc(O)c(Cl)c1CCn1nncc1Cc1ccc(Cl)cc1` [Compound 32, methyl 3-chloro-2-(2-(5-(4-chlorobenzyl)-1H-1,2,3-triazol-1-yl)ethyl)-4,6-dihydroxybenzoate], which “Fold selective for Grp94” value [1] is on record?
A: The value was 9 fold.

Q: And the Kd [2]?
A: Its Kd is 5.7 ± 0.5 µM.

Q: Which results are given for `COC(=O)c1c(O)cc(O)c(Cl)c1CCn1nncc1Cc1ccc(OC)cc1` [Compound 36, methyl 3-chloro-4,6-dihydroxy-2-(2-(5-(4-methoxybenzyl)-1H-1,2,3-triazol-1-yl)ethyl)benzoate]?
A: Fold selective for Grp94 [1]: 7 fold; Kd [2]: 41.5 ± 7.6 µM

Q: What does the source list for `CCCCc1ccccc1Cc1cnnn1CCc1c(Cl)c(O)cc(O)c1C(=O)OC` [Compound 48, methyl 2-(2-(5-(2-butylbenzyl)-1H-1,2,3-triazol-1-yl)ethyl)-3-chloro-4,6-dihydroxybenzoate]?
A: Fold selective for Grp94 [1]: 78 fold; Kd [2]: 6.72 ± 0.15 µM
